Source: patent publication EP0837071A1, “Tripeptide antithrombotic agents” (ELI LILLY AND COMPANY, priority 1990, dated 1992)
Where two headings read alike, the source gives them in different places.

Experiments:
bovine thrombin [1] = target: T1, bovine thrombin (Bos taurus, UniProt P00735); assay: Thrombin time in buffer (fibrinogen instead of plasma); type: biochemical; conditions: buffer pH 7.5, fibrinogen instead of plasma
T1 construct: 50 µl bovine thrombin (2 NIH unit/ml)
Experimental: (§1) The numerical values in the table are the concentrations of the test compounds (ng/ml) required to prolong coagulation by 2-fold in the three tests. The thrombin time evaluation was carried out in plasma and separately determined in a buffer system at […].
(§2) The data presented in Table 2 were obtained using a CoaScreener instrument from Tecan, Inc. in the assay protocols listed below. Prothrombin Time: 50 µl plasma 50 µl saline 7 µl test solution 50 µl thromboplastin (Dade) Thrombin Time: 50 µl plasma 50 µl saline 7 µl test compound 50 µl bovine thrombin (2 NIH unit/ml) In the Thrombin Time determined in pH 7.4 buffer fibrinogen was used instead of plasma. APTT: 50 µl plasma 50 µl Actin (Dade) 7 µl test solution 50 µl CaCl2 (0.01M).

thrombin = target: T2, thrombin (Bos taurus, UniProt P00735); assay: Inhibition of thrombin amidase activity (chromogenic substrate N-benzoyl-D-phenylalanyl-L-valyl-L-arginyl-p-nitroanilide); type: biochemical
T2 construct: purchased
Experimental: The data in the table were obtained in an assay in which thrombin hydrolyzes the chromogenic substrate, N-benzoyl-D-phenylalanyl-L-valyl-L-arginyl-p-nitroanilide.
The assay was carried out in 50 µl buffer (0.03M Tris, 0.15M NaCl, pH 7.4) with 25 µl of thrombin solution (0.21 mg/ml of thrombostat powder in 0.06 M Tris, 0.3M NaCl, pH 7.4) and 150 µl of an aqueous solution of the chromogenic substrate at a concentration of 0.25 mg/ml. Solutions of test compound (25 µl) at various concentrations were added. […] Standard curves were constructed by plotting free thrombin concentration against hydrolysis rate. […] The amount of free inhibitor in each assay was calculated by subtracting the number of moles of bound thrombin from the number of moles of added inhibitor (test compound).
The Kass value is the hypothetical equilibrium constant for the reaction between thrombin and the test compouhnd (I). Thrombin + I ⇄ Thrombin - I [formula] Kass =([Thrombin I])/([ (Thrombin) x (I) ]) [formula]
Kass was calculated for a range of concentrations of test compounds and the mean value is reported in units of liter per mole.

plasma [2] = assay: Plasma coagulation assay: prothrombin time; type: biochemical; conditions: thromboplastin (Dade)
Experimental: as §1, §2

plasma [3] = assay: Plasma coagulation assay: activated partial thromboplastin time (APTT); type: biochemical; conditions: Actin (Dade), CaCl2
Experimental: as §1, §2

[4] = tested on: Arterial Thrombosis in the Rat; assay: FeCl3-induced arterial thrombosis in the carotid artery of the rat; type: in vivo; conditions: infusion from 15 min before to 60 min after FeCl3 application, NA = Not active at 4 mg/kg/h or at 7 mg/kg/h, the highest doses tested
Experimental: The antithrombotic activity of representative compounds of the invention was determined in in vivo tests carried out in the rat. The test employed induced arterial thrombosis in the carotid artery of the rat and measured the infusion dose of test compound required to maintain blood flow for fifty minutes past the time of occlusion. The test was performed as follows.
Arterial thrombosis was induced in the rat by injury of the carotid artery. Topical application of a ferric chloride solution was used to injure the vessel. […] Animals were laid on a water blanket in which the circulated water was maintained at 37° C. The carotid artery was approached through a midline cervical incision. Careful blunt dissection was used to expose and isolate the vessel from the carotid sheath. A silk suture was pulled underneath the artery to lift the vessel to provide clearance to insert a thermocouple underneath it. […] The discs were cut to equal size using sharpened stainless steel tubing (3 mm i.d.) chucked in a drill press. A saturated disc was placed on each carotid artery above the thermocouple. The time between FeCl3 application and the time at which temperature decreased abruptly was recorded as time to occlusion (TTO) of the vessel. The average time required for both vessels to occlude was used to represent TTO for each animal.
Test compounds were dissolved in isotonic saline. A syringe pump was used to infuse drug solutions starting 15 min before FeCl3 application and continuing for 60 min after FeCl3 application. Dose-response curves were plotted to determine the relationship between the log10 of the infused doses and the TTO of the injured arteries.
The association between vessel occlusion and the abrupt temperature decrease was established by simultaneously recording the temperature and blood flow on the same recorder. A pulsed Doppler flow probe was placed around the carotid artery proximal to the thermocouple. […] Results were reported as percent change from initial baseline values (6 min before occlusion). The time at which vessel temperature decreased rapidly was arbitrarily established as zero and pre- and post-occlusion temperature and flow values were referenced from that point.

bovine thrombin [5] = target: T1, bovine thrombin; assay: Plasma coagulation assay: thrombin time; type: biochemical; conditions: plasma, bovine thrombin (2 NIH unit/ml)
Experimental: as §1, §2

| SMILES | Buffer (pH 7.5) Thrombin Time: concentration of test compounds required to prolong coagulation by 2-fold (bovine thrombin [1]) | Kd (thrombin; apparent equilibrium (association) constant, mean over a range of concentrations, pH 7.4, acetate salts unless indicated otherwise, read-out: Thrombin Amidase Kass (converted)) | Prothrombin Time: concentration of test compounds required to prolong coagulation by 2-fold (plasma [2]) | APTT: concentration of test compounds required to prolong coagulation by 2-fold (plasma [3]) | ED50 (infusion dose required to maintain blood flow for 50 min) [4] | Thrombin Time: concentration of test compounds required to prolong coagulation by 2-fold (bovine thrombin [5]) | Kd (thrombin) |
| --- | --- | --- | --- | --- | --- | --- | --- |
| CC(C)(C)OC(=O)NC(C(=O)N1CCC[C@H]1C(=O)N[C@H](C=O)CCCNC(=N)N)c1cccc2ccccc12 (mixture of isomers) [N-Boc-DL-1-naphthylglycyl] | 112 ng/ml | 55.2 nM | 1136 ng/mL | 2272 ng/mL | 5.5 mg/kg/h | 320 ng/mL |  |
| CC(C)(C)OC(=O)N[C@@H](C(=O)N1CCC[C@H]1C(=O)N[C@H](C=O)CCCNC(=N)N)c1cccc2ccccc12 [N-Boc-D-1-naphthylglycyl, N-Boc-D-1-naphthylglycyl-Pro-Arg-H diacetate] | 105 ng/ml |  | 1225 ng/mL | 3100 ng/mL | 6.4 mg/kg/h | 230 ng/mL | 19.2 nM |
